How the values were obtained:
[1] = test system: SLE/CLE skin and kidney, HD skin; test: Immunohistochemistry and laser scanner confocal microscopy of tissues; set-up: species or system human; settings: for presence in SLE and CLE target organs: IHC and LSM, skin (dermis) and kidney; for kidney biopsies with DNA filaments bound to LL37 and/or cit-LL37: lupus nephritis, four of seven biopsies
Experimental: Immunohistochemistry and laser scanner confocal microscopy (LSM)
We performed staining on […] paraffin or frozen sections of human lupus erythematosus skin specimens obtained from CHUV, Dept. of Dermatology. Staining with anti-cit-LL37 Mabs was performed using the antibodies Mab142 and Mab137 at 1:40 dilution, followed by incubation with a […] (Abcam). HRP and DAB (DAKO) were used to develop the color. Nuclear staining was performed with Mayer’s haematoxylin. […]
Frozen or paraffin-included SLE renal biopsies, obtained from Policlinico Umberto I, Rome, IT or CHUV Lausanne, CH, were stained, after saturation with blocking buffer (PBS, 0.05% tween 20, 4% BSA) for 1 hour at room temperature. Bopsies in paraffin were stained after de-paraffination in xilene (5 minutes, two times), followed by passages in: absolute ethanol (3 minutes), 95% ethanol in water (3 minutes), 80% ethanol in water (3 minutes), 70% ethanol in water (3 minutes), and antigen retrieval (5 minutes at […]
95°C in 10 mM sodium citrate, pH 6.0). Antibodies (Mab142 or Mab137) were added at 1:50 dilution (all diluited in blocking buffer) (isotype control was added at 1:100 concentration) for 1 hour at room temperature in a humidified chamber. Anti-C9 (Atlas antibodies, Sweden) was added at 1:50 dilution (all antibody dilutions were in blocking buffer). Slides were washed three times for 3 minutes under agitation with PBS 0.1% tween 20 and incubated with donkey anti-mouse or anti-rabbit secondary antibody or mouse anti-goat antibody, conjugated with AlexaFluor 647, Alexa Fluor 568 or 594 or AlexaFluor 488, depending on the combinations of markers analyzed (in humidified chamber). Slides were washed again, and mounted in Prolong Gold anti-fade media containing a DNA dye (DAPI) (Molecular Probes), before analysis with a confocal microscope, objectives 20x, or 40x and 60x in oil immersion. Images were taken by a FV1000 confocal microscope (Olympus, Tokyo, Japan), using a Olympus planapo objective 40x or 60x oil A.N. 1,42.
Excitation light was obtained by a Laser Dapi 408 nm for DAPI, an Argon Ion Laser (488 nm) for FITC (Alexa 488), a Diode Laser HeNe (561 nm) for Alexa 568, and a Red Diode Laser (638 nm) for Alexa 647. DAPI emission was recorded from 415 to 485 nm, FITC emission was recorded […]
For quantification of LL37 and cit-LL37 in renal/skin biopsies, we counted the specific staining spots in at least 3 sections from each patient, by using the ImageJ64 software. For comparison we also counted the staining in HD skin, as background staining. To estimate the percent of co-localization between IgG and LL37 staining we measured, in three sections for each patient, the total IgG or LL37 staining in single color images and than on merge images we assessed the spots that indicates the co-localization IgG/LL37.
Reactivity of mouse anti-LL37 monoclonal antibodies (Mab137 and Mab142) Biotinylated native LL37, cit-SCR LL37, SCR LL37, cit-LL37, and the other citrullinated and non-citrullinated control antigenic peptides (also biotinylated) were diluted at 2-to-5 µg/mL and added to the wells over night at 4°C. Excess unbound peptides were washed away with wash buffer (PBS

CD4 T-cells = test: Peptide-MHC-tetramer staining of PBMC after seven-day culture; assay type: cell-based, human; settings: for peptide-MHC-tetramer staining in HLA-matched HD: HLA-matched HD PBMCs; for peptide-MHC-tetramer staining at remission: SLE2, SLE22 and CLE6 PBMCs at remission
Experimental: Peptide-MHC-tetramer staining of T-cell lines/clones and blood T-cells
Peptide-MHC-tetramers (Table S4) were from ProImmune, (UK), TC Metrix, (CH), Benaroya,
(USA) and ImmunAware (Denmark). Staining was performed for 40 minutes at 37°C, followed by
staining for CD4 (4°C, 20 minutes). Before flow cytometry-acquisition, cells were labelled with
PercP-conjugated 7-AAD to exclude dead cells. […]

[2] = test system: CD4 T-cells in PBMC cultures; test: TFH/Th17 marker expression by flow cytometry (CXCR5, Bcl-6, Ror-γt); assay type: cell-based, human; settings: for Bcl-6 expression / Ror-ɣt expression: CD38hi T-cells, 48 hours; for Bcl-6 expression: SLE but not psoriasis; for Ror-ɣt expression: both SLE and psoriasis; for CXCR5 expression by proliferating T-cells: SLE (but not in psoriasis)
Experimental: PBMCs were purified, from EDTA-treated blood, on Ficoll-Hypaque (Pharmacia Fine Chemicals, Uppsala, Sweden) were incubated (10^5 cells/well) in 96-well-flat-bottom-microplates (BD) in T cell-medium (RPMI 1640, 10% heat-inactivated human serum, HS, Gibco), 2 mM L-glutamine, 10 U/mL penicillin, and 100 μg/mL streptomycin), with/without peptides. We performed assays on fresh cells, within 1-to-3 hours from collection, or on PBMCs frozen in 90% FCS-10%DMSO, whose viability we assessed by Trypan blue exclusion, at inverted microscope. Recovery of live cells was between 65 and 85 % of the frozen number. At day3 and 5, BrdU was added (1 μg/mL). BrdU-incorporation was detected by APC-labeled anti-BrdU antibody (BD Pharmingen), after surface staining by flow cytometry. Internal control for T-cell viability and proliferation was PHA treatment (2 μg/mL). SI for proliferation was calculated by dividing percent of BrdU-staining in the presence of each peptide used to stimulate cells by percent of BrdU-staining in the absence of peptide stimulation. SI for proliferation was considered positive when>3. This cut-off was obtained by calculating the mean+2DS [1.5 + 2 (0.6)] (of the stimulation indexes calculated as above) of the proliferation of HD.
Basal % of proliferation was set using, as reference, an isotype matched antibody staining (APC-isotype control and) and never exceed 5% of cell proliferation value (background proliferation).
Assays were repeated twice with each patient. In rare cases in which background proliferation exceed antigen-specific proliferation the assay was repeated three times. Concomitant phenotype analysis of LL37-responder T-cells included staining for CD4, CD8, CXCR5, PD1, ICOS, CCR6. Ror-ɣt and Bcl-6 were measured by intracellular staining and flow cytometry, after 48 hours culture with LL37 or control antigen, and were analyzed on CD38highCD4 T-cells. […]

Substance | presence in SLE and CLE target organs [1] | kidney biopsies with DNA filaments bound to LL37 and/or cit-LL37 [1] [%] | peptide-MHC-tetramer staining in HLA-matched HD (CD4 T-cells; seven-day culture) | peptide-MHC-tetramer staining at remission (CD4 T-cells) | frequency of peptide-MHC-tetramer positive T-cells, cit-LL37 versus native-LL37 (CD4 T-cells; three patients (SLE2, SLE22, CLE6), seven-day culture) | Bcl-6 expression [2] | Ror-ɣt expression [2] | CXCR5 expression by proliferating T-cells [2] | expression in HD skin ([1]; healthy donor skin)
LLGDFFR(cit)KSKEKIGKEFKR(cit)IVQR(cit)IKDFLR(cit)NLVPR(cit)TES [cit-LL37, citrullinated LL37 (citrullinated at all five arginin positions)] | detected | 57 | did not stain significantly | still observed some staining upon stimulation with cit-LL37 | higher upon culture of PBMCs with cit-LL37 compared to native-LL37 | could up-regulate Bcl-6 | could upregulate Ror-ɣt expression | significant up-regulation | –
LLGDFFRKSKEKIGKEFKRIVQRIKDFLRNLVPRTES [LL37, native LL37, antimicrobial peptide, 37 aa] | detected | 57 | did not stain significantly | not staining for native-LL37 | – | could up-regulate Bcl-6 | could upregulate Ror-ɣt expression | significant up-regulation | did not express significant amounts

Source: article PMC7125190, “Native/citrullinated LL37-specific T-cells help autoantibody production in Systemic Lupus Erythematosus” (Scientific Reports, 2020)
